In brackets after ≈: the same amount, converted by molar mass.
Key:
[1] = test system: SMMC-7721; experiment: Cytotoxicity against human SMMC7721 cells by MTT assay; format: functional, cell-based
[2] = Cytotoxicity against human HO8910 cells by MTT assay; format: functional, cell-based; conditions: HO-8910

C=C1C(=O)O[C@@H]2C3O[C@]3(C)CC/C=C(\C)CC[C@@H]12 (stereo partly drawn)
IC50 [1]: 4.2 µg/mL (≈ 16.9 µM) | IC50 [2]: 1.37 µg/mL (≈ 5.52 µM)

COc1ccc(C2CC(=O)c3c(O)cc(OC)cc3O2)cc1 (stereo not drawn)
IC50 [1]: > 200 µg/mL | IC50 [2]: > 200 µg/mL

C/C1=C\CC[C@@]2(C)O[C@@H]2[C@H]2OC(=O)[C@@H](C)[C@@H]2CC1 [11BETA,13-DIHYDRO-PARTHENOLIDE]
IC50 [1]: > 200 µg/mL | IC50 [2]: 158 µg/mL (≈ 631 µM)

CC[C@]1(O)C[C@H]2CN(CCc3c([nH]c4ccccc34)[C@@](C(=O)OC)(c3cc4c(cc3OC)N(C=O)[C@H]3[C@@](O)(C(=O)OC)[C@H](OC(C)=O)[C@]5(CC)C=CCN6CC[C@]43[C@@H]65)C2)C1 [VINCRISTINE]
IC50 [1]: 20.7 µg/mL (≈ 25.1 µM) | IC50 [2]: 1.37 µg/mL (≈ 1.66 µM)
